From patent USRE47078E1, “Polymorphic forms of N-[4-(trifluoromethyl)benzyl]-4-methoxybutyramide” (Laboratorio Farmaceutico C.T. S.R.L., priority 2007, dated 2018)
Entries after “also recorded” stand apart in the source; their conditions may differ.

What was measured:
[1] = Thermodynamic stability / interconversion of the polymorphs; assay type: physicochemical
[2] = system: Sardinian Alcohol preferring rats (sP); assay: Spontaneous alcohol intake in non deprived sP rats; assay type: in vivo, rat
Procedure: Tests were carried out in Sardinian Alcohol preferring rats (sP), i.e. a rodent line genetically selected for their spontaneous alcohol consume. These animals were adopted as the main specific animal model in the research program due to the fact that these rats (kept in a free-choice regimen between water and a 10% ethanol solution) consume large amounts of alcohol (6-7 g/Kg/day), sharing a great preference for […] (80-100%).
Under the standard, these rats are subjected to homecage two-bottle free choice regimen between 10% alcohol and water with unlimited access (24 h/day) and they show these features: daily intake of about 6 g/Kg of alcohol; preference ratio (alcohol solution vs total fluids) above 80%; fractioning of daily alcohol intake in 3-4 binges; achievement of BALs (Blood Alcohol Levels) above 50 mg % at each binge; induction of pharmaceutical effects (anxiolysis, motor stimulation) and regulation by a central, hedonic set-point mechanism.
1. Spontaneous Alcohol Intake in Non Deprived sP Rats
According to this model, the alcohol intake in a two bottles free-choice regimen represents the “active drinking” phase of human alcoholism. Therefore the tested active compounds should decrease the propension of rats to consume alcohol. […] In FIG. 8A the results of a single experiment are shown. Specifically 10, 20, 25 and 50 mg/kg doses of polymorphic Form A were administered and the alcohol intake was evaluated.

rats [3] = assay: Hexobarbital sleeping time in rats; assay type: in vivo, rat
Procedure: (§1) The possible adverse effects of polymorphic Form A on the CNS, cardiovascular, respiratory and immune functions were evaluated in vitro and in vivo (rats and dogs) in different experimental models. In the in vivo tests, the tested compound was always given by single oral administration at the doses of 100, 300 and 1000 mg/kg.
The test consists in the measurement of the duration of hexobarbital-induced sleep; substances with a sedative or antisleep action cause increase or decrease respectively in the duration of hexobarbital induced sleep.

rats [4] = assay: Proconvulsant activity in rats (pentylenetetrazol); assay type: in vivo, rat; conditions: with pentylenetetrazol
Procedure: as §1

HERG tail current = target: T1, HERG tail current (Homo sapiens, UniProt Q12809); assay: HERG tail current, patch clamp in HEK-293 cells; assay type: cell-based
T1 construct: expressed in transfected cells; host or cells: HEK-293
T1 sequence (Q12809 whole entry): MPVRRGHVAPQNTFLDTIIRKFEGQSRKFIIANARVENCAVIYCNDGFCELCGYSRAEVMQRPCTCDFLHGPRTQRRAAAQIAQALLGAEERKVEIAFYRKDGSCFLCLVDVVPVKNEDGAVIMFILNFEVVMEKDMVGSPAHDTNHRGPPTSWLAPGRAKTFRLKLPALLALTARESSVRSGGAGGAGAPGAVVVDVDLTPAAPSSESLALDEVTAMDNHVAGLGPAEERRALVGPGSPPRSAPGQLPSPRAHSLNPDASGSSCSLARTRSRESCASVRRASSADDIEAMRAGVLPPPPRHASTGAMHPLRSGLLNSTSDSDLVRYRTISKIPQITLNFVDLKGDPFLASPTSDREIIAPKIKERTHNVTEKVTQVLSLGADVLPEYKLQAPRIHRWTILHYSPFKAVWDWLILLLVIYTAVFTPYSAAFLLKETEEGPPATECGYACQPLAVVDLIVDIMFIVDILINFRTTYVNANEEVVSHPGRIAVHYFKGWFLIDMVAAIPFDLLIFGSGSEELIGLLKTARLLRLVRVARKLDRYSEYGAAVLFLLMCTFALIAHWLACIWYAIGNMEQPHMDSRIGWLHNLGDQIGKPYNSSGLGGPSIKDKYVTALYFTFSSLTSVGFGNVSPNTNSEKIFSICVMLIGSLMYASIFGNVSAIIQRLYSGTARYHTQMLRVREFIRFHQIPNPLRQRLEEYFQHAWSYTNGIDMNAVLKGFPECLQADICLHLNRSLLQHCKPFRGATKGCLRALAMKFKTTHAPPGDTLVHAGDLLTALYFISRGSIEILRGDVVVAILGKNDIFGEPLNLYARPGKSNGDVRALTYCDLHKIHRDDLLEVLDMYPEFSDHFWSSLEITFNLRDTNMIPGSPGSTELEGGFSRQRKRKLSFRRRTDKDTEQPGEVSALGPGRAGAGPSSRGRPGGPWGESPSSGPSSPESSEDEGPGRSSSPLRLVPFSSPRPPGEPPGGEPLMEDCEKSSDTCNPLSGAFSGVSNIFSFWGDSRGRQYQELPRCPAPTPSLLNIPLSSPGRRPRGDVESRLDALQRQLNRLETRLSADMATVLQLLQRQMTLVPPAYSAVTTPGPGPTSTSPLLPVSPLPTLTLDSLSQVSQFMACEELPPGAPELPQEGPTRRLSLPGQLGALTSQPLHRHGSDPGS
Text: A possible blocking effect of polymorphic Form A on Herg tail current recorded from HEK-293 cells (Human Embryonic Kidney cells) stably transfected with HERGG-1 cDNA was investigated. The method consisted in measuring the HERG tail current by using the patch clamp techniques in the whole cell configuration. Compounds which inhibited HERG current were recognized to prolong the cardiac action potential and increase QT interval.

conscious rats = assay: Respiratory evaluation in conscious rats (whole body plethysmography); assay type: in vivo, rat
Procedure: as §1
The effect of polymorphic Form A on respiratory parameters (respiratory rate, peak inspiratory and peak expiratory flows, inspiration and expiration times, airway resistance index, minute volume and tidal volume) was assessed in conscious rats after single oral administration. Respiration was measured by the whole body plethysmography method.

immune system = assay: PCF test (Plaque Forming Cells) in rats; assay type: in vivo, rat
Procedure: A possible effect of polymorphic Form A on the immune system was evaluated by using the method system of Plaque Forming Cells (PCF) in the rat, following oral administration to rats for 28 days at the doses of 150, 250 and 500 mg/kg. The method is based on the stimulation of the immune system with an antigenic agent (sheep's red blood cells) and on the evaluation of the effect of the test item on the immune response. The immune response was assessed by measuring the proportion of splenocytes which produced antibodies against the antigenic agent (Plaque Forming Cells) in presence of complement. […] In fact, statistical analysis evidenced a significativity at 150 mg/kg, but not at 250 mg/kg; these findings might indicate that the effects is observed at these doses could be due to the variability normally present in this test as heterogeneity in immune response is often seen and it is likely to be related to individual differences in immune sensitivity, […]

Salmonella typhimurium = assay: Salmonella Typhimurium Reverse Mutation Assay (Ames test); assay type: cell-based
Procedure: The mutagenic potential of polymorphic Form A was evaluated in vitro in the Salmonella Typhimurium Reverse Mutation Assay according to EC guidelines. […] Therefore polymorphic Form A is to be considered non-mutagenic in this Salmonella typhimurium reverse mutation assay.

Rat (Bone marrow Cells) = assay: Micronucleus test in rat bone marrow; assay type: in vivo; conditions: os, single, 500-2000 mg/kg, 24 and 48 hours
Procedure: Any clastogenic or spindle poison activity of polymorphic Form A was investigated by detecting micronucleated polychromatic erythrocytes in the bone marrow of treated rats. The study was conducted in compliance with the EC Guidelines. The method involved searching for the presence of a chromosome fragment, or a number of chromosomes, resulting from a deletion or a mitotic spindle poison effect, in the polychromatic erythrocytes in the bone marrow. Clastogenic products may produce, at the moment of mitosis, chromosome breakage, while spindle poisons disturb the structure of the mitotic spindles. An acentric fragment of a chromosome that has not migrated normally is not retained in the nucleus of the daughter cell, and appears in the cytoplasm. It is then known as a Howell-Jolly body or micronucleus. The micronucleus can be detected in polychromatic erythrocytes, as these cells expel their main nucleus shortly after the last mitosis and the micronucleus remains in the red blood cells. Male and female Sprague Dawley rats were treated orally once with 2000-1000-500 mg/kg of polymorphic Form A and 24 and 48 hours after the treatment their femurs were sampled and bone marrow cells were extracted.

COCCCC(=O)NCc1ccc(C(F)(F)F)cc1 [Polymorphic Form A, N-[4-(trifluoromethyl)benzyl]-4-methoxybutyramide]
Thermodynamic stability, conversion of one form into the other [1]: thermodynamically stable, with no conversion of one into the other | Alcohol intake ([2]; 10 mg/kg, single experiment of FIG. 8A): significantly reduced alcohol intake | Alcohol intake ([2]; 10-100 mg/kg, intragastric acute administration): decreases the alcohol intake | Food intake ([2]; sP rats, data not reported): normal food intake | Water intake ([2]; sP rats, data not reported): compensatory increase of water intake | Time taken to fall asleep and duration of the sleep (rats [3]; highest dose (1000 mg/kg) oral): significant decrease of the time taken to fall asleep and of the duration of the sleep | Sleep duration (rats [3]; intermediate dose (300 mg/kg) oral): slight decrease in sleep duration | Time taken to fall asleep and duration of the sleep (rats [3]; lowest dose (100 mg/kg) oral): No statistical significant effect | Time of occurrence of seizures (rats [4]; 100 and 300 mg/kg oral): increase in the time of occurrence of seizures | Proconvulsant effect (rats [4]; all the doses (100, 300, 1000 mg/kg oral)): no statistical significant proconvulsant effect | Reduction of HERG tail current (HERG tail current; 10^−4 M, highest concentration tested): about 50% | Inhibition of HERG tail current (HERG tail current; 10^−6 and 10^−5 M): slight and non dose-dependent decrease | Inhibition of HERG tail current (HERG tail current; 10^−7 M): no statistically significant inhibition | Inhibition of HERG tail current, highest value reached (HERG tail current; all concentrations, 70% is the threshold for an active compound): < 70% | Respiratory parameters (conscious rats; 100 mg/kg single oral): no relevant effect on respiratory parameters | Peak inspiratory and peak expiratory flows, minute volume, airway resistance index (conscious rats; 100, 300 and 1000 mg/kg single oral): No statistically change | Respiratory rate and tidal volume (conscious rats; 300 and 1000 mg/kg single oral): tachypnoea associated to a transient reduction in tidal volume | Immunosuppressant activity (Plaque Forming Cells) (immune system; 500 mg/kg oral, 28 days): clear-cut | Immunosuppressant activity (Plaque Forming Cells) (immune system; 150 and 250 mg/kg oral, 28 days): comparable borderline effect | Immunosuppressant activity (Plaque Forming Cells) (immune system; oral, 28 days, 150, 250 and 500 mg/kg): slight and not dose-dependent immunosuppressant activity | Genotoxicity, Ames test result (Salmonella typhimurium; S. typhimurium, in vitro, 3-500 μg/ml): Negative | Gene mutations by base pair changes or frameshifts (Salmonella typhimurium; TA 1535, TA 1537, TA 98, TA 100, TA102, 50 to 3000 μg/ml, with and without metabolic activation): did not induce gene mutations | Genotoxicity, Micronucleus test result (Rat (Bone marrow Cells)): no clastogenic activity; also recorded: Negative
